The values below come from article PMC8302598, “Rapid discovery of self-assembling peptides with one-bead one-compound peptide library” (Nature Communications, 2021).

One data set concerns HeLa cells. Briefly: Cell uptake pathway analysis (4 °C and endocytosis inhibitors). Conditions: for Cell uptake in the presence of amiloride and M-β-CD: 50 μM peptide; for Cell uptake in the presence of amiloride and M-β-CD / Cell uptake mechanism: amiloride 2 mM, M-β-CD 5 mM; for Cell uptake mechanism: 50 μM, 37 or 4 °C, chlorpromazine 50 μM, CLSM, n=3; for Cell uptake at 4 °C: FITC-labeled nano-assembly (3% labeled), 4 °C vs 37 °C. The data set is classed as cell-based. Here is the method: Finally, we examined the biological effects and cellular distribution of the eight self-assembling peptides on HeLa cells. […] In order to observe the nanomaterials under fluorescent microscopy, each peptide preparation was spiked with 3% of the same peptide N-terminally labeled with FITC, and then added to HeLa cells at a final concentration of 40 μM. […] After 4 h of incubation with the peptide assemblies, the cells were observed under a fluorescent microscope (Figs. 4c, d and Supplementary 22). […] It is important to note that LDFPI nanoparticle was small (8 nm diameter) even after 4 h incubation. Its small size may in part explain its ability to pass through the nuclear pore complexes[32],[33]. […] To evaluate the cell uptake mechanism of peptide assemblies (YFTEF, ISDNL, and FGFDP) into the cytoplasm, we treated the cells at 4 °C or with various endocytosis inhibitors (Supplementary Fig. 23). […]
Supplementary Figure 23 . Cell uptake pathway analysis for FITC-labeled pentapeptide assemblies YFTEF, ISDNL and […]. a) CLSM images of HeLa cells incubated with pentapeptides (50 μ M ) at di fferent temperatures (37 or 4 °C) and in the presence of various endocytosis inhibitors, such as amiloride (2 mM), M-β-CD (5 mM), and chlorpromazine (50 μM). The scale bar is 10 μm. b) Relevant quantitative analysis of images from ‘a’. 3% of the assembled peptides was N-terminally labeled with FITC, E rror ba rs represent Standard Deviation (n=3). […]
To elucidate the cell uptake pathways of pentapeptides, we quantified the fluorescence intensity of the HeLa cells after incubation with FITC-labeled nano-assembly of YFTEF, ISDNL, FAGFT, FGFDP, at 37 and 4 °C, respectively (3% of the peptide assembly were N-terminally labeled with FITC for tracking). There were nearly no uptake of pentapeptides by HeLa cells at 4 °C, which is consistent with mechanism of cell uptake by endocytosis. We have also examined the effects of cell uptake by various endocytosis inhibitors: amiloride (2 mM, inhibitor of endocytosis), M-β-CD (5 mM, inhibitor of caveolae-dependent endocytosis), and chlorpromazine (50 μM, inhibitor of clathrin-dependent endocytosis).
(1 picture or pasted object on this page, not shown here)
Figure R11. Cell uptake pathway detection. a) CLSM images of HeLa cells incubated with pentapeptides (50 μM) at different temperatures (37 or 4 °C) and in the presence of various endocytosis inhibitors, such as amiloride (2 mM), M-13-CD (5 mM), and chlorpromazine(50 μM), respectively. The scale bar is 10 μm. b) Relevant quantitative analysis in ‘a’. […]

The nature of data set [1]: Turbidity test (transmittance spectra). The data set is classed as physicochemical. Conditions: 20 μM peptide in water. As to the method: To further confirm the peptide assembling in water, the solutions of pentapeptide were diluted to 20 μM for turbidity test.
A short description of data set [2]: Appearance and TEM of 30 mM peptide in water. Particulars: for Nanostructure under TEM: 30 mM in H2O; for Appearance of peptide in water: 30 mM in water, sonicated 3 min. The data set is classed as physicochemical. As to the method:
To further characterize these self-assembling peptides, we selected two positive peptides (FFVDF and YFTEF) and a negative control peptide (PFTTR) for the following studies: Fourier transform infrared (FT-IR) spectroscopy, UV−Vis spectra, and transmission electron microscopy (TEM).
Pentapeptides monomers were dissolved in DMSO at a concentration of 5.0 mM, followed by quick injection into water at a volume ratio of 1:99 for DMSO and H2O to obtain the nanomaterials solution (50 μM). For 30 mM pentapeptide solution, the pentapeptide was dissolved in water and sonicated for 3 min.
The pentapeptide solution with the concentration of 20 μM (10 μL) was placed dropwise onto a copper mesh for 5 min, then most of the liquid was removed through a filter paper. Ten microliters of uranyl acetate solution were employed to stain the samples for 5 min, followed by drying the spare liquid with the filter. Finally, the copper mesh was washed with 10 μL of deionized water, which was blotted after staining and drying at room temperature. All of the samples were observed by TEM (Tecnai G2 20 S-TWIN) at an accelerating voltage of 200 kV.

In the case of “ISDNL [self-assembling pentapeptide identified from OBOC library]”, in the data set with HeLa cells, the “Cell uptake in the presence of amiloride and M-β-CD” value is “significantly decreased”; the Cell uptake mechanism entry was “caveolae-dependent endocytosis and micropinocytosis”; the “Cell uptake at 4 °C” value is recorded as “nearly no uptake”.
“YFTEF [self-assembling pentapeptide identified from OBOC library]”: in the data set on HeLa cells, the Cell uptake mechanism result was “clathrin dependent endocytosis” and the “Cell uptake at 4 °C” value is reported as “nearly no uptake”. The “Transmittance at 400 nm” value in data set [1] came out at 98%. In data set [2], the “Nanostructure under TEM” value is “entangled fibrous network” and the “Appearance of peptide in water” value is “milky hydrogel”.
“FAGFT [self-assembling pentapeptide identified from OBOC library]”: in the data set on HeLa cells, the “Cell uptake in the presence of amiloride and M-β-CD” value was “significantly decreased”; the “Cell uptake at 4 °C” value is recorded as “nearly no uptake”.
On to “FGFDP [self-assembling pentapeptide identified from OBOC library]”, for which, in the data set on HeLa cells, the Cell uptake mechanism result was “both caveolae-dependent and clathrin-dependent endocytosis”; the “Cell uptake at 4 °C” value is “nearly no uptake”.
Consider “FFVDF [self-assembling pentapeptide identified from OBOC library, forms nanofibers]”, for which the “Transmittance at 400 nm” value in data set [1] worked out at 88%. For the same substance, in data set [2], the “Nanostructure under TEM” value is “entangled fibrous network” and the “Appearance of peptide in water” value is on record as “milky white solution”.
